Source: ChEMBL document CHEMBL3400005, “Thermodynamic equilibrium solubility measurements in simulated fluids by 96-well plate method in early drug discovery” (Bioorg Med Chem Lett, 2015)
Values after ≈ are worked out from the molar mass of the structure shown.

Assays:
physchem [1] = conditions: pH 7.4
physchem [2] = conditions: pH 6.8
physchem [3] = conditions: pH 1.2
physchem [4] = conditions: pH 6.8; remark: listed apart in the source
physchem [5] = conditions: water
physchem [6] = conditions: water; remark: listed apart in the source
physchem [7] = conditions: pH 1.2; remark: listed apart in the source
physchem [8] = conditions: PBS, pH 7.4
physchem [9] = assay: physchem

Structure (SMILES)	solubility thermodynamic at 4 h (physchem [1]; PBS) [µM]	solubility thermodynamic at 24 h (physchem [2]; simulated intestinal fluid) [µM]	solubility thermodynamic at 4 h (physchem [3]; simulated gastric fluid) [µM]	solubility thermodynamic at 4 h (physchem [4]; simulated intestinal fluid) [µM]	solubility thermodynamic at 4 h (physchem [5]) [µM]	solubility thermodynamic at 24 h (physchem [6]) [µM]	solubility thermodynamic at 24 h (physchem [7]; simulated gastric fluid) [µM]	solubility thermodynamic at 24 h (physchem [8]) [µM]	solubility thermodynamic (physchem [9]) [µM]	solubility thermodynamic at 4 h (physchem [1]; buffer) [µM]	solubility thermodynamic at 24 h (physchem [2]; simulated gi fluid) [µM]	solubility thermodynamic at 4 h (physchem [3]; simulated gi fluid) [µM]	solubility thermodynamic at 4 h (physchem [4]; simulated gi fluid) [µM]	solubility thermodynamic at 24 h (physchem [7]; simulated gi fluid) [µM]
CCCc1nc2c(C)cc(-c3nc4ccccc4n3C)cc2n1Cc1ccc(-c2ccccc2C(=O)O)cc1	7.76 (≈ 3.99 µg/mL)	2.29 (≈ 1.18 µg/mL)	38.9 (≈ 20 µg/mL)	1.95 (≈ 1 µg/mL)	3.89 (≈ 2 µg/mL)	29.5 (≈ 15.2 µg/mL)	40.7 (≈ 21 µg/mL)	6.46 (≈ 3.32 µg/mL)						
CC(C(=O)[O-])c1ccc(-c2ccccc2)c(F)c1.[Na+] (stereo not drawn)	162		33.1	4.07	331									
CC(=O)N[C@@H](CS)C(=O)O [ACETYLCYSTEINE]	12.3 (≈ 2.01 µg/mL)		6.17 (≈ 1.01 µg/mL)	6.17 (≈ 1.01 µg/mL)	24.5 (≈ 4.01 µg/mL)									
CCCSc1ccc2nc(NC(=O)OC)[nH]c2c1 [ALBENDAZOLE]	1.91 (≈ 0.506 µg/mL)	0.759 (≈ 0.201 µg/mL)	151 (≈ 40.2 µg/mL)	1.91 (≈ 0.506 µg/mL)	0.38 (≈ 0.101 µg/mL)	0.049 (≈ 0.013 µg/mL)	204 (≈ 54.2 µg/mL)	12.9 (≈ 3.42 µg/mL)	0.49 (≈ 0.13 µg/mL)					
C[C@@H]1[C@H](O)[C@@H](C)/C=C/C=C/C=C/C=C/C=C/C=C/C=C/[C@H](O[C@@H]2O[C@H](C)[C@@H](O)[C@H](N)[C@@H]2O)C[C@@H]2O[C@](O)(C[C@@H](O)C[C@@H](O)[C@H](O)CC[C@@H](O)C[C@@H](O)CC(=O)O[C@H]1C)C[C@H](O)[C@H]2C(=O)O [AMPHOTERICIN B]	21.9 (≈ 20.2 µg/mL)	3.8 (≈ 3.51 µg/mL)	13.5 (≈ 12.5 µg/mL)	4.37 (≈ 4.03 µg/mL)	21.9 (≈ 20.2 µg/mL)	22.9 (≈ 21.2 µg/mL)	11.2 (≈ 10.4 µg/mL)	26.3 (≈ 24.3 µg/mL)	81.3 (≈ 75.1 µg/mL)					
CC(C)(C#N)c1cc(Cn2cncn2)cc(C(C)(C)C#N)c1 [ANASTROZOLE]	0.339 (≈ 0.0994 µg/mL)	0.692 (≈ 0.203 µg/mL)	1.7 (≈ 0.498 µg/mL)	1.7 (≈ 0.498 µg/mL)	0.339 (≈ 0.0994 µg/mL)	0.148 (≈ 0.0434 µg/mL)	0.178 (≈ 0.0522 µg/mL)	0.105 (≈ 0.0307 µg/mL)						
CN1C(=N)N(C)/C(=C/c2c[nH]c3ccccc23)C1=O [APLYSINOPSIN]	56.2 (≈ 14.3 µg/mL)		79.4 (≈ 20.2 µg/mL)	0.389 (≈ 0.0989 µg/mL)	31.6 (≈ 8.04 µg/mL)									
CC(=O)Oc1ccccc1C(=O)O [ASPIRIN]										5010 (≈ 903 µg/mL)	3.72 (≈ 0.669 µg/mL)	3310 (≈ 597 µg/mL)	2.75 (≈ 0.496 µg/mL)	1450 (≈ 260 µg/mL)
COc1ccc2cc3[n+](cc2c1OC)CCc1cc2c(cc1-3)OCO2.[Cl-] [BERBERINE CHLORIDE]	21.4		33.9	398	214				537					
CC(C)=CC[C@H]1C[C@@]23C[C@@H](CC=C(C)C)C(C)(C)[C@@](CC=C(C)C)(C(=O)C(C(=O)c4ccc(O)c(O)c4)=C2OC1(C)C)C3=O [CAMBOGIN]	0.851 (≈ 0.513 µg/mL)		0.851 (≈ 0.513 µg/mL)	0.851 (≈ 0.513 µg/mL)	0.851 (≈ 0.513 µg/mL)									
CC[C@H]1OC(=O)[C@H](C)[C@@H](O[C@H]2C[C@@](C)(OC)[C@@H](O)[C@H](C)O2)[C@H](C)[C@@H](O[C@@H]2O[C@H](C)C[C@H](N(C)C)[C@H]2O)[C@](C)(OC)C[C@@H](C)C(=O)[C@H](C)[C@@H](O)[C@]1(C)O [CLARITHROMYCIN]	0.676 (≈ 0.506 µg/mL)		0.676 (≈ 0.506 µg/mL)	1.35 (≈ 1.01 µg/mL)	0.676 (≈ 0.506 µg/mL)				0.0447 (≈ 0.0334 µg/mL)					
Clc1ccccc1C(c1ccccc1)(c1ccccc1)n1ccnc1 [CLOTRIMAZOLE]	11.5 (≈ 3.96 µg/mL)		5.75 (≈ 1.98 µg/mL)	0.288 (≈ 0.0995 µg/mL)	10 (≈ 3.45 µg/mL)									
CC(/C=C/C=C(\C)C(=O)O[C@@H]1O[C@H](CO[C@@H]2O[C@H](CO)[C@@H](O)[C@H](O)[C@H]2O)[C@@H](O)[C@H](O)[C@H]1O)=C\C=C\C=C(C)\C=C\C=C(/C)C(=O)O[C@@H]1O[C@H](CO[C@@H]2O[C@H](CO)[C@@H](O)[C@H](O)[C@H]2O)[C@@H](O)[C@H](O)[C@H]1O [CROCIN]	155 (≈ 151 µg/mL)		155 (≈ 151 µg/mL)	155 (≈ 151 µg/mL)	155 (≈ 151 µg/mL)									
CC(=O)O[C@@]12CO[C@@H]1C[C@H](O)[C@@]1(C)C(=O)[C@H](O)C3=C(C)[C@@H](OC(=O)[C@H](O)[C@@H](NC(=O)OC(C)(C)C)c4ccccc4)C[C@@](O)([C@@H](OC(=O)c4ccccc4)[C@H]21)C3(C)C.O.O.O [DOCETAXEL]	2.45		0.617	1.23	5.37				0.871					
